Assay results as given in patent US9302999B2, “Substituted triazoles as herbicides” (E. I. DU PONT DE NEMOURS AND COMPANY, priority 2012, dated 2016).

Tests used:
Assay type in all cases: in vivo
[1] = tested on: ducksalad (Heteranthera limosa); assay: Test C flooded paddy test: ducksalad; conditions: scale 0 to 100 (0 no effect, 100 complete control)
How it was run: (§1)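 2-leaf stage plants; pots flooded 3 cm above soil; compound applied into paddy water, depth maintained. Greenhouse 13–15 d. Visual rating vs controls, 0–100 (0 = no effect, 100 = complete control); dash = no result.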

[2] = tested on: sedge, umbrella (small-flower umbrella sedge, Cyperus difformis); assay: Test C flooded paddy test: sedge, umbrella; conditions: scale 0 to 100 (0 no effect, 100 complete control)
How it was run: as §1

[3] = tested on: barnyardgrass (Echinochloa crus-galli); assay: Test A pre-/postemergence: barnyardgrass; conditions: for Barnyardgrass plant response rating: Postemergence; for Plant response rating, Barnyardgrass: Preemergence
How it was run: (§2)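 Injury was scored visually on a 0 (no effect) to 100 (complete control) scale versus untreated controls roughly ten days after treatment in the greenhouse. Compounds, formulated in surfactant-containing non-phytotoxic solvent, went on as soil-directed preemergence spray or postemergence to one- to two-leaf plants 2–10 cm tall.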

[4] = tested on: velvetleaf (Abutilon theophrasti); assay: Test A pre-/postemergence: velvetleaf; conditions: for Velvetleaf plant response rating: Postemergence; for Plant response rating, Velvetleaf: Preemergence
How it was run: as §2

[5] = tested on: pigweed (Amaranthus retroflexus); assay: Test A pre-/postemergence: pigweed; conditions: for Pigweed plant response rating: Postemergence; for Plant response rating, Pigweed: Preemergence
How it was run: as §2

rice (Oryza sativa) = assay: Test C flooded paddy test: rice; conditions: scale 0 to 100 (0 no effect, 100 complete control)
How it was run: as §1

[6] = tested on: crabgrass, large (large crabgrass, Digitaria sanguinalis); assay: Test A pre-/postemergence: crabgrass, large; conditions: for Crabgrass, Large plant response rating: Postemergence; for Plant response rating, Crabgrass, Large: Preemergence
How it was run: as §2

[7] = tested on: wheat (Triticum aestivum); assay: Test A pre-/postemergence: wheat; conditions: for Wheat plant response rating: Postemergence; for Plant response rating, Wheat: Preemergence
How it was run: as §2

[8] = tested on: barnyardgrass (Echinochloa crus-galli); assay: Test C flooded paddy test: barnyardgrass; conditions: scale 0 to 100 (0 no effect, 100 complete control)
How it was run: as §1

corn (Zea mays) = assay: Test A pre-/postemergence: corn; conditions: for Corn plant response rating: Postemergence; for Plant response rating, Corn: Preemergence
How it was run: as §2

[9] = tested on: morningglory (Ipomoea spp.); assay: Test A pre-/postemergence: morningglory; conditions: for Morningglory plant response rating: Postemergence; for Plant response rating, Morningglory: Preemergence
How it was run: as §2

[10] = tested on: foxtail, giant (giant foxtail, Setaria faberii); assay: Test A pre-/postemergence: foxtail, giant; conditions: for Foxtail, Giant plant response rating: Postemergence; for Plant response rating, Foxtail, Giant: Preemergence
How it was run: as §2

[11] = Flood (flooded paddy test), 62 g ai/ha, visual rating after 13 to 15 days
[12] = Flood (flooded paddy test), 125 g ai/ha, visual rating after 13 to 15 days
[13] = Flood (flooded paddy test), 250 g ai/ha, visual rating after 13 to 15 days
[14] = 125 g ai/ha, 0 to 100 scale, 0 is no effect, 100 is complete control
[15] = 500 g ai/ha, visual rating on 0 to 100 scale (0 no effect, 100 complete control), approximately ten days
[16] = 125 g ai/ha, 0 to 100 scale (0 no effect, 100 complete control)
[17] = 500 g ai/ha, 0 to 100 scale, 0 is no effect, 100 is complete control

Cc1nn(-c2cccc(C(F)(F)F)c2)nc1Oc1cc(C(F)(F)F)nn1C [Compound 64]
0: Plant response rating, Ducksalad [1, 11] | Plant response rating, Ducksalad [1, 12] | Plant response rating, Ducksalad [1, 13] | Plant response rating, Ducksalad ([1]; Flood, 31 g ai/ha) | Plant response rating, Sedge, Umbrella [2, 11] | Plant response rating, Sedge, Umbrella [2, 12] | Plant response rating, Sedge, Umbrella [2, 13] | Plant response rating, Sedge, Umbrella ([2]; Flood, 31 g ai/ha) | Barnyardgrass plant response rating [3, 14] | Barnyardgrass plant response rating [3, 15] | Plant response rating, Barnyardgrass [3, 16] | Plant response rating, Barnyardgrass [3, 17] | Velvetleaf plant response rating [4, 14] | Velvetleaf plant response rating [4, 15] | Plant response rating, Velvetleaf [4, 16] | Plant response rating, Velvetleaf [4, 17] | Pigweed plant response rating [5, 14] | Pigweed plant response rating [5, 15] | Plant response rating, Pigweed [5, 16] | Plant response rating, Pigweed [5, 17] | Plant response rating, Rice (rice (Oryza sativa); [11]) | Plant response rating, Rice (rice (Oryza sativa); [12]) | Plant response rating, Rice (rice (Oryza sativa); [13]) | Plant response rating, Rice (rice (Oryza sativa); Flood, 31 g ai/ha) | Crabgrass, Large plant response rating [6, 14] | Crabgrass, Large plant response rating [6, 15] | Plant response rating, Crabgrass, Large [6, 16] | Plant response rating, Crabgrass, Large [6, 17] | Wheat plant response rating [7, 14] | Wheat plant response rating [7, 15] | Plant response rating, Wheat [7, 16] | Plant response rating, Wheat [7, 17] | Plant response rating, Barnyardgrass [8, 11] | Plant response rating, Barnyardgrass [8, 12] | Plant response rating, Barnyardgrass [8, 13] | Plant response rating, Barnyardgrass ([8]; Flood, 31 g ai/ha) | Corn plant response rating (corn (Zea mays); [14]) | Corn plant response rating (corn (Zea mays); [15]) | Plant response rating, Corn (corn (Zea mays); [16]) | Plant response rating, Corn (corn (Zea mays); [17]) | Morningglory plant response rating [9, 14] | Morningglory plant response rating [9, 15] | Plant response rating, Morningglory [9, 16] | Plant response rating, Morningglory [9, 17] | Foxtail, Giant plant response rating [10, 14] | Foxtail, Giant plant response rating [10, 15] | Plant response rating, Foxtail, Giant [10, 16] | Plant response rating, Foxtail, Giant [10, 17]

Cc1nn(-c2ccc(F)cc2)nc1Cn1cc(C(F)(F)F)nc1Cl [Compound 35]
20: Corn plant response rating (corn (Zea mays); [14]) | Plant response rating, Morningglory [9, 16]
60: Plant response rating, Barnyardgrass [3, 16] | Wheat plant response rating [7, 15] | Foxtail, Giant plant response rating [10, 14]
70: Plant response rating, Ducksalad [1, 12] | Velvetleaf plant response rating [4, 14]
40: Plant response rating, Ducksalad ([1]; Flood, 31 g ai/ha) | Barnyardgrass plant response rating [3, 14]
65: Plant response rating, Ducksalad [1, 11]
90: Barnyardgrass plant response rating [3, 15] | Plant response rating, Barnyardgrass [3, 17] | Plant response rating, Pigweed [5, 16] | Crabgrass, Large plant response rating [6, 15] | Plant response rating, Crabgrass, Large [6, 16] | Morningglory plant response rating [9, 14] | Foxtail, Giant plant response rating [10, 15]
100: Velvetleaf plant response rating [4, 15] | Pigweed plant response rating [5, 14] | Pigweed plant response rating [5, 15] | Plant response rating, Pigweed [5, 17] | Plant response rating, Crabgrass, Large [6, 17] | Morningglory plant response rating [9, 15] | Plant response rating, Foxtail, Giant [10, 17]
0: Plant response rating, Rice (rice (Oryza sativa); [11]) | Plant response rating, Rice (rice (Oryza sativa); [12]) | Plant response rating, Rice (rice (Oryza sativa); [13]) | Plant response rating, Rice (rice (Oryza sativa); Flood, 31 g ai/ha) | Plant response rating, Wheat [7, 16] | Plant response rating, Wheat [7, 17] | Plant response rating, Barnyardgrass [8, 11] | Plant response rating, Barnyardgrass [8, 12] | Plant response rating, Barnyardgrass ([8]; Flood, 31 g ai/ha)
30: Plant response rating, Velvetleaf [4, 16] | Plant response rating, Barnyardgrass [8, 13] | Plant response rating, Corn (corn (Zea mays); [17])
10: Wheat plant response rating [7, 14] | Plant response rating, Corn (corn (Zea mays); [16])
50: Plant response rating, Velvetleaf [4, 17] | Corn plant response rating (corn (Zea mays); [15]) | Plant response rating, Morningglory [9, 17]
80: Plant response rating, Sedge, Umbrella [2, 12] | Plant response rating, Sedge, Umbrella [2, 13] | Crabgrass, Large plant response rating [6, 14] | Plant response rating, Foxtail, Giant [10, 16]
75: Plant response rating, Ducksalad [1, 13] | Plant response rating, Sedge, Umbrella [2, 11] | Plant response rating, Sedge, Umbrella ([2]; Flood, 31 g ai/ha)
